Earlier results in US6710026B1, “Protein domains in the hepatic glycogen-targetting subunit of protein phosphatase 1 and methods of making and using the same” (Medical Research Counsel, priority 1998, dated 2004).

Tested on: PP1
Conditions: recent studies; cited from earlier work

GM 63-75: peptide of amino acids 63 to 75 of GM (RVSFADSFGFNLV; UniProt Q16821 63-75, looked up, fragment)
binding to PP1: shown to bind PP1
